Experimental data as given in BindingDB's records for doi:10.1021/jm00034a016 (Merck Research Laboratories, 1994).

Molecular target: T1, Dimer of Gag-Pol polyprotein [489-587] (Human immunodeficiency virus 1, UniProt P12497)
T1 construct: 489-587
Assay: Protease Inhibition Assay
Conditions: pH 5.5; 30 °C
Protocol: The IC50 values for the compounds were determined using purified HIV-1 Protease. Inhibition of the cleavage of the peptide H-Val-Ser-Gln-Asn-(L-beta-napthylalanine)-Pro-Ile-Val-OH was assessed at 30 °C, pH = 5.5 with [Enzyme] = 30 pM for 1 h, using HPLC with UV detection for quantification of the products. For the IC50 data a substrate concentration of 0.4 mg/mL was used, and data was fit to a four parameter sigmoidal equation.

Q: `C[C@@H]1OCC[C@@H]1OC(=O)N[C@@H](Cc1ccccc1)[C@H](O)CN1C[C@H]2CCCC[C@H]2C[C@H]1C(=O)NC(C)(C)C` [(2S,3S)-2-methyloxolan-3-yl N-[(2S,3R)-4-[(3S,4aS,8aS)-3-(tert-butylcarbamoyl)-decahydroisoquinolin-2-yl]-3-hydroxy-1-phenylbutan-2-yl]carbamate] was tested. Which IC50 did it give?
A: 52.4 nM

Q: Which IC50 does the source give for `C[C@H]1OCC[C@H]1OC(=O)N[C@@H](Cc1ccccc1)[C@H](O)CN1C[C@H]2CCCC[C@H]2C[C@H]1C(=O)NC(C)(C)C` [Isoquinoline furanyl urethane analog] here?
A: 169 nM

Q: With `C[C@H]1[C@@H](OC(=O)N[C@@H](Cc2ccccc2)[C@H](O)CN2C[C@H]3CCCC[C@H]3C[C@H]2C(=O)NC(C)(C)C)CCS1(=O)=O` [N-tert-butyldecahydro-2-[2(R)-hydroxy-4-phenyl-3(S)-[[[[2 (S)-methyl-(3 S)-l , l-dioxotetrahydrothiophene-3-yl]-oxy]carbonyl]amino]butyl]-(4aS,8aS)-isoquinoline-3(S)-carboxamide] as the compound, how does the IC50 read?
A: 11.4 nM

Q: With `C[C@@H]1[C@H](OC(=O)N[C@@H](Cc2ccccc2)[C@H](O)CN2C[C@H]3CCCC[C@H]3C[C@H]2C(=O)NC(C)(C)C)CCS1(=O)=O` [N-tert-butyldecahydro-2-[2(R)-hydroxy-4-phenyl-3(S)-[[[[4 (S)-methyl-(3 R)-l , l-dioxotetrahydrothiophene-3-yl]-oxy]carbonyl]amino]butyl]-(4aS,8aS)-isoquinoline-3(S)-carboxamide] as the compound, how does the IC50 read?
A: 22.3 nM
